In PubChem BioAssay AID2060351 (Molecular Pharmacology Branch, DTP, NCI, 2025):
“And” between values parts separate entries of the source, which are not always exact repeats. Equal values may be shown once.

System: 521955-158-R7-J2-PDC spheroids, viability % test/control
Experiment: Anticancer human tumor 521955-158-R7-J2-PDC patient-derived pancreatic carcinoma cell line growth inhibition [TAK]
Details: spheroids with HUVEC and MSC; for viability, T/C: stronger effect = lower value; active = viability on the fitted dose curve at most 10% of control; inactive = the rest
Excerpt: Combinatorial screen of targeted agents with TAK-243 and ipatasertib in multi-cell type tumor spheroids
A high-throughput screen of multi-cell type tumor spheroids was designed to identify active combinations of targeted small molecules and TAK-243 or ipatasertib. Complex spheroids include a stromal component modeled by human endothelial cells (HUVEC) and fibroblasts modeled by human mesenchymal stem cells (MSCs). The concentration ranges selected for each drug and investigational agent were based upon clinically achievable concentrations if the clinical Cmax of the agent was known.
Compounds. The drugs and investigational agents: TAK-243 (785004), ipatasertib (767898), everolimus (733504), selumetinib (741078), bortezomib (756655), trametinib (758246), ixazomib (758254), vemurafenib (761431), dabrafenib (764134), sapanisertib (764658), alpelisib (765974), and copanlisib (816437), were obtained from the National Cancer Institute (NCI) Developmental Therapeutics Program Chemical Repository. The FDA-approved anticancer drug set is available from the NCI Developmental Therapeutics Program. […] The stock solutions were prepared in dimethyl sulfoxide (DMSO, Sigma-Aldrich, St. Louis, MO, cat. D2650) at 800-fold the tested concentration and stored at -70 degrees C prior to their use. All drugs and investigational agents were tested over a range starting from a high concentration at or near the clinical Cmax and decreasing in half-log increments. If the clinical Cmax for an agent had not been determined, the highest concentration tested was 10 microM.
NCI60 Cell Culture. NCI60 cell lines were obtained from the NCI Developmental Therapeutics Program Tumor Repository. For each lot of cells, the Repository performed Applied Biosystems AmpFLSTR Identifiler testing with PCR amplification to confirm consistency with the published Identifier STR profile for each cell line. Cells were kept in continuous culture for no more than 20 passages. The optimal seeding densities for each of the cell lines at each time point assessed were determined prior to performing the concentration response studies. Briefly, the NCI60 human tumor lines were grown as monolayers in RPMI 1640 medium supplemented with 10% FBS and 2 mmol/L L-glutamine.
An additional 2 lines were from the NCI60 cell line panel including melanomas, MALME-3M and SK-MEL-2. Pooled donor human umbilical vein endothelial cells (HUVEC, Lonza, cat. CC-2519) and human mesenchymal stem cells (hMSC, Lonza, cat. PT-2501) were purchased from Lonza (Walkersville, MD).
PDMR cell lines were grown in complete medium (DC medium): Dulbecco's modified Eagle's medium (DMEM)/F12 supplemented with 5% fetal bovine serum (FBS), 2 mM L-glutamine, 100 U/mL penicillin and 100 µg/ml streptomycin, 0.4 µg/ml hydrocortisone, 10 ng/ml epidermal growth factor (EGF) recombinant human protein, 24 µg/mL adenine, and 0.1 mg/mL primocin. During culture from frozen stock vials, PDMR cells were cultured in the same medium containing 10 µM Y-27632 (see Table 3). The PDCs were cultured in complete DMEM/F12 media without 10 microM Y-27632 dihydrochloride for at least two passages prior to the screen. The pooled donor HUVEC and hMSC were cultured in endothelial cell growth medium 2 (PromoCell, Heidelberg, Germany, cat. C-22011) and mesenchymal stem cell growth medium 2 (PromoCell, cat. C-28009), respectively. For all experiments, HUVEC and hMSC were used at passages </=5.
For the pre-screen, cell seeding densities were determined from a titration spanning the range from 5,000 to 313 cells per well. The mct-spheroids including 60% malignant cells, 25% HUVEC and 15% MSC dispensed as a mixture into U-bottom Ultra-Low Attachment 384-well plates (Corning, NY)
High-throughput Drug Combination Screening.
Prior to their inoculation into 384-well plates, malignant cells, HUVEC, and hMSC were removed from T flasks using TrypLE express (Thermo Fisher Scientific, cat. 12605036) and harvested by centrifugation for 5 min at 233 x g. […]
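Also: spheroids exposed to compound for 7 days before readout.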

CCCS(=O)(=O)Nc1ccc(F)c(C(=O)c2c[nH]c3ncc(-c4ccc(Cl)cc4)cc23)c1F
inactive: viability, T/C (compound 0.316 µM) 98.6% and 98.4% | viability, T/C (compound 1 µM) 97.2% and 95.1% | viability, T/C (compound 3.16 µM) 94.6% and 78.2% | viability, T/C (compound 10 µM) 108% and 71% | viability, T/C (compound 31.6 µM) 82.2% and 67.9% | viability, T/C (compound 100 µM) 90.6% and 82.5%
> 100 µM: IC50 (curve of compound)

Cn1cnc2c(F)c(Nc3ccc(Br)cc3Cl)c(C(=O)NOCCO)cc21
inactive: viability, T/C (compound 0.00949 µM) 66.3% and 85.1% | viability, T/C (compound 0.03 µM) 54.9% and 61.7% | viability, T/C (compound 0.0949 µM) 38.7% and 44.3% | viability, T/C (compound 0.3 µM) 31.6% and 43.3% | viability, T/C (compound 0.949 µM) 25.7% and 30% | viability, T/C (compound 3 µM) 14.6% and 16.5%
0.0416 µM and 0.0877 µM: IC50 (curve of compound)

CC(C)(C)c1nc(-c2cccc(NS(=O)(=O)c3c(F)cccc3F)c2F)c(-c2ccnc(N)n2)s1 + CC(C)NCC(C(=O)N1CCN(c2ncnc3c2C(C)CC3O)CC1)c1ccc(Cl)cc1
> 10 µM: IC50 (curve of first compound, second compound 0.3 µM) | IC50 (curve of first compound, second compound 0.949 µM) | IC50 (curve of first compound, second compound 3 µM) | IC50 (curve of first compound, second compound 9.49 µM) | IC50 (curve of first compound, second compound 30 µM)
inactive: viability, T/C (second compound 0.3 µM, first compound 0.0316 µM) 111% | viability, T/C (second compound 0.3 µM, first compound 0.1 µM) 94.3% | viability, T/C (second compound 0.3 µM, first compound 0.316 µM) 106% | viability, T/C (second compound 0.3 µM, first compound 1 µM) 131% | viability, T/C (second compound 0.3 µM, first compound 3.16 µM) 101% | viability, T/C (second compound 0.3 µM, first compound 10 µM) 74.2% | viability, T/C (second compound 0.949 µM, first compound 0.0316 µM) 89.3% | viability, T/C (second compound 0.949 µM, first compound 0.1 µM) 102% | viability, T/C (second compound 0.949 µM, first compound 0.316 µM) 90.4% | viability, T/C (second compound 0.949 µM, first compound 1 µM) 103% | viability, T/C (second compound 0.949 µM, first compound 3.16 µM) 92.7% | viability, T/C (second compound 0.949 µM, first compound 10 µM) 60.3% | viability, T/C (second compound 3 µM, first compound 0.0316 µM) 95% | viability, T/C (second compound 3 µM, first compound 0.1 µM) 115% | viability, T/C (second compound 3 µM, first compound 0.316 µM) 108% | viability, T/C (second compound 3 µM, first compound 1 µM) 130% | viability, T/C (second compound 3 µM, first compound 3.16 µM) 101% | viability, T/C (second compound 3 µM, first compound 10 µM) 71.5% | viability, T/C (second compound 9.49 µM, first compound 0.0316 µM) 127% | viability, T/C (second compound 9.49 µM, first compound 0.1 µM) 115% | viability, T/C (second compound 9.49 µM, first compound 0.316 µM) 117% | viability, T/C (second compound 9.49 µM, first compound 1 µM) 119% | viability, T/C (second compound 9.49 µM, first compound 3.16 µM) 105% | viability, T/C (second compound 9.49 µM, first compound 10 µM) 83.7% | viability, T/C (second compound 30 µM, first compound 0.0316 µM) 111% | viability, T/C (second compound 30 µM, first compound 0.1 µM) 130% | viability, T/C (second compound 30 µM, first compound 0.316 µM) 138% | viability, T/C (second compound 30 µM, first compound 1 µM) 136% | viability, T/C (second compound 30 µM, first compound 3.16 µM) 130% | viability, T/C (second compound 30 µM, first compound 10 µM) 97.2%
